# From US20130096067A1, “DROSOPHILA TUMOR STEM CELL MODEL AND USES THEREOF” (priority 2011, published 2013)
# “Also recorded” adds a separate entry of the source. Read-outs that look alike come from different tables or passages of the source.
# Tests used:
# [1] = system: Raf-1^gof intestinal tumors; details: for Fold: luciferase relative to DMSO, fed three consecutive days in vials; for Log2 (fold) (luciferase activity, log2 of the fold difference relative to DMSO controls) / Fold (luciferase activity, fold difference relative to DMSO controls): screen of 480 ICCB compounds in vials, compounds fed to flies with one-day old Raf-1^gof tumors, esg-Gal4 luciferase
# Raf-1^gof TSCs = experiment: Visualization of Raf-1^gof tumors in dissected guts by esg-GFP and Delta staining; format: in vivo, Drosophila
# Method: Samples were incubated 1 hour in 5% NDS blocking solution, overnight in primary antibody, 1.5 hours in secondary antibody and 6 minutes in DAPI. They were rinsed and washed between steps in PBS containing 0.1% Triton X-100. Finally they were placed in mounting media (Vectashield) and mounted for microscopy. Images were taken with a Leica TCS SP2 confocal microscope.
# (§1) Primary screening drugs were provided by the Harvard Institute for Chemistry and Cell Biology (ICCB; 480 known bioactives library), and the National Cancer Institute (NCI) Drug Therapeutics Program (library of 88 FDA-approved oncology drugs). Secondary assays were conducted with freshly prepared 10 mM stocks that were diluted 1:100 in fly food, giving a final concentration of 100 μM.
# (§2) Drugs were dissolved in 100% DMSO. Drugs were mixed 1:100 with molten fly food at 37° C. and then aliquoted to either 5 mL tubes or 1 mL wells of a 96-well plate.
# Control flies were treated with DMSO.
# Flies were treated with DMSO alone as a control.
# Raf-1^gof tumor cells = experiment: esg-Gal4 luciferase assay in whole-fly lysates of control and drug-treated flies (validation and replicate assays); format: in vivo, Drosophila
# Method: as §1, §2
# Flies were anesthetized and transferred in pools of 3 to 96-well plates containing 100 μL of glo lysis buffer (Promega E2661) and homogenized with a multiple homogenizer (Burkard Scientific BS00253) for 3-5 minutes. The plates were then centrifuged for 5 minutes at 4,000 rpm, and the lysates were then transferred to new 96-well “master” plates. Firefly luciferase assays were conducted with 20 μL of lysate as specified by Promega. Luminescence was counted using the Molecular Devices Analyst GT plate reader.
# To exploit the TSC model for in vivo chemical screens, a high-throughput method was developed to track tumor growth, using a luciferase reporter assay instead of the conventional method of visualizing tumors with GFP. […] The esg-Gal4 driver was employed to express luciferase in the TSCs and the effects of various compounds were compared by measuring luciferase in homogenates of control and drug-treated flies.
# JNK signaling = experiment: puc-LacZ reporter for JNK signaling in wild-type guts; format: in vivo, Drosophila; details: EC cells
# Method: (§3) Flies were treated with DMSO alone as a control. […].
# (§4) For example, subjecting the fly intestine to the detergent dextran sulfate sodium (DSS) or to pathogen infection, induces ECs to activate the JNK stress-related pathway and to express IL-6 related cytokines (Unpaireds/Upds) (Jiang et al., 2009; Buchon et al., 2009; Apidianakis et al., 2009). The Upds activate JAK-STAT signaling in the ISCs, driving them to overproliferate. To determine if these same pathways are activated in response to FDA anti-cancer drugs, the puc-lacZ reporter was used to monitor JNK signaling, and a Gal-4 enhancer trap to monitor expression of Upd-3, the Upd cytokine preferentially expressed in the gut in response to injury (Jiang et al., 2009).
# JAK-STAT signaling = experiment: upd3-GFP reporter for JAK-STAT signaling in wild-type guts; format: in vivo, Drosophila; details: EC cells
# Method: as §3, §4
# [2] = system: Raf-1^gof intestinal tumors; experiment: Luciferase screen of FDA-approved (NCI) drugs in 96-well plates, flies with Raf-1^gof intestinal tumors; format: in vivo, Drosophila; details: for Avg (3 + 6): average of Day 3 and Day 6 fold; for Log2 (fold): log2 of the Day 3 fold difference in luciferase relative to DMSO controls; for Day 3 Fold: luciferase activity relative to DMSO controls, single dose of drug for three days, 96-well plates; for Day 6 Fold: six-day protocol: single dose for three days, then another dose for three more days
# ISCs/EBs = experiment: Drug-induced ISC/EB expansion in animals with loss-of-function JAK allele hop^msv1; format: in vivo, Drosophila; details: loss-of-function JAK allele hop^msv1 vs wild type
# Method: FIG. 7. FDA anti-cancer drugs that block TSCs can have differential effects on the microenvironment and growth of wild-type ISCs. […] Flies were treated with DMSO alone as a control. […]. […] C) The expansion of ISCs/EBs in response to bortezomib and paclitaxel is less severe in animals with a loss-of-function JAK allele, hop^msv1.
# Controls: yw,yv;attP2 (Ni et al., 2008). Gal4 drivers and reporters: esg-Gal4,UAS-GFP,tub-Gal80^ts (Micchelli et al., 2006), UAS-luc2(luciferase at attP2) (Markstein et al., 2008), puc-lacZE69 (Ring et al., 1993), #42685}, upd3-Gal4 (Agaisse et al., 2003). UAS constructs: UAS-Raf-1^gof (Brand et al., 1994), UAS-raptor-RNAi (TRIP stock JF01088), UAS-Dsor-RNAi (TRIP stock JF01697), UAS-Akt-RNAi (TRIP stock HMS00007). UAS-NotchDN (Jacobsen 1998). Mutants: hop^msv1 (Perrimon et al., 1986). Using the above stocks, an esg-Gal4 stock was created with both an inducible GFP reporter and an inducible Luciferase reporter: esg-Gal4,UAS-GFP,tub-Gal80^ts; UAS-luc2. For the chemical screens the following cross was performed to create Raf-1^gof intestinal tumors marked with GFP and luciferase: UAS-Raf-1^gof X esg-Gal4,UAS-GFP,tub-Gal80^ts; UAS-luc2. […]
# [3] = Table 3 summary of hits, Screen ICCB
# [4] = esg-GFP in dissected guts, DMSO control
# [5] = assessed three days later, averaged from multiple wells
compound,measurement,setting,value
"C[C@H](NC(=O)Cc1cc(F)cc(F)c1)C(=O)N[C@H]1N=C(c2ccccc2)c2ccccc2N(C)C1=O [Compound E, reference compound]",Log2 (fold) of luciferase activity relative to DMSO controls,"[1]; ICCB compounds fed in vials to flies with one-day old Raf-1^gof tumors, assessed three days later",1.431
same,Fold (luciferase activity relative to DMSO controls),"[1]; ICCB compounds fed in vials to flies with one-day old Raf-1^gof tumors, assessed three days later, averaged from multiple wells",2.696 fold
same,Log2 (fold),[1]; [3],1.431
same,Fold,[1]; [3],2.696 fold
same,effect on Raf-1^gof tumor cells / tumor growth,Raf-1^gof TSCs; [4],augmented tumor growth; also recorded: increased tumor growth; also recorded: dramatic expansion of the tumor
same,effect on luciferase activity,Raf-1^gof tumor cells; whole-animal extracts vs DMSO controls,augmented tumor growth and luciferase activity
Bleomycin,expression of puc-lacZ reporter (JNK signaling),JNK signaling,induced JNK and JAK-STAT signaling
same,expression of upd3-GFP / Upd-3 reporter (JAK-STAT signaling),JAK-STAT signaling,induced JNK and JAK-STAT signaling
same,Avg (3 + 6),[2],0.521 fold
same,Log2 (fold),[2],0.060
same,Day 3 Fold,[2],1.043 fold
same,Day 6 Fold,[2],0.000 fold
same,effect on Delta positive TSCs,Raf-1^gof TSCs; Delta staining of dissected guts,failed to block TSCs
CC(=O)O[C@H]1C(=O)[C@@]2(C)[C@H]([C@H](OC(=O)c3ccccc3)[C@]3(O)C[C@H](OC(=O)[C@H](O)[C@@H](NC(=O)c4ccccc4)c4ccccc4)C(C)=C1C3(C)C)[C@]1(OC(C)=O)CO[C@@H]1C[C@@H]2O [Paclitaxel],expansion of ISCs/EBs in hop^msv1 animals,ISCs/EBs,less severe
same,Fold,[1]; [3],0.274 fold
same,"Log2 (fold) (luciferase activity, log2 of the fold difference relative to DMSO controls)",[1]; assessed three days later,−1.870
same,"Fold (luciferase activity, fold difference relative to DMSO controls)",[1]; [5],0.274
same,expression of puc-lacZ reporter (JNK signaling),JNK signaling,inducing expression of puc-lacZ; also recorded: induced expression of both the JNK puc-lacZ reporter and the Upd-3 reporter
same,expression of upd3-GFP / Upd-3 reporter (JAK-STAT signaling),JAK-STAT signaling,"inducing expression of puc-lacZ (red, upper panel) and upd3-GFP; also recorded: induced expression of both the JNK puc-lacZ reporter and the Upd-3 reporter"
same,Avg (3 + 6),[2],0.695 fold
same,Log2 (fold),[2],−1.808
same,Day 3 Fold,[2],0.285 fold
same,Day 6 Fold,[2],1.104 fold
CC(C)C[C@H](NC(=O)[C@H](Cc1ccccc1)NC(=O)c1cnccn1)B(O)O [Bortezomib],expansion of ISCs/EBs in hop^msv1 animals,ISCs/EBs,less severe
same,expression of puc-lacZ reporter (JNK signaling),JNK signaling,inducing expression of puc-lacZ; also recorded: induced expression of both the JNK puc-lacZ reporter and the Upd-3 reporter
same,expression of upd3-GFP / Upd-3 reporter (JAK-STAT signaling),JAK-STAT signaling,"inducing expression of puc-lacZ (red, upper panel) and upd3-GFP; also recorded: induced expression of both the JNK puc-lacZ reporter and the Upd-3 reporter"
same,Avg (3 + 6),[2],0.607 fold
same,Log2 (fold),[2],−2.013
same,Day 3 Fold,[2],0.248 fold
same,Day 6 Fold,[2],0.967 fold
COc1cc2c(c(OC)c1OC)-c1ccc(OC)c(=O)cc1[C@@H](NC(C)=O)CC2 [colchicine],effect on Raf-1^gof tumor cells / tumor growth,Raf-1^gof TSCs; in vivo,eliminated virtually all of the tumor cells; also recorded: eliminates virtually all of the Raf-1^gof tumor cells; also recorded: virtually all of the tumor cells were lost
same,effect on luciferase activity,Raf-1^gof tumor cells; in vivo,steep drop in luciferase activity
same,loss of luciferase activity,Raf-1^gof tumor cells; in vivo,about 80%
"Nc1ncnc2c1c(I)cn2[C@@H]1O[C@H](CO)[C@@H](O)[C@H]1O [5-iodotubercidin, reference compound]",Fold,[1]; [3],0.530 fold
same,"Log2 (fold) (luciferase activity, log2 of the fold difference relative to DMSO controls)",[1]; assessed three days later,−0.917
same,"Fold (luciferase activity, fold difference relative to DMSO controls)",[1]; [5],0.530
same,effect on Raf-1^gof tumor cells / tumor growth,Raf-1^gof TSCs; [4],reduced tumor growth
